Laboratory results taken from ChEMBL document CHEMBL1157599, “Synthesis, in vitro and in vivo biological evaluation, docking studies, and structure--activity relationship (SAR) discussion of dipeptidyl boronic acid proteasome inhibitors composed of beta-amino acids” (J Med Chem, 2010).

Legend:
[1] = Tmax in Sprague-Dawley rat at 1 mg/kg, iv; assay type: ADME, organism-based; parameters: dose 1 mg/kg, route intravenous; conditions: in vivo
[2] = Cmax in Sprague-Dawley rat at 1 mg/kg, iv; assay type: ADME, organism-based; parameters: dose 1 mg/kg, route intravenous; conditions: in vivo
[3] = Mean residence time in Sprague-Dawley rat at 1 mg/kg, iv; assay type: ADME, organism-based; parameters: dose 1 mg/kg, route intravenous; conditions: in vivo
[4] = AUC (0 to t) in Sprague-Dawley rat at 1 mg/kg, iv; assay type: ADME, organism-based; parameters: dose 1 mg/kg, route intravenous; conditions: plasma
[5] = Terminal half life in Sprague-Dawley rat at 1 mg/kg, iv; assay type: ADME, organism-based; parameters: dose 1 mg/kg, route intravenous; conditions: in vivo, read-out: beta t1/2 (converted)
[6] = Volume of distribution in Sprague-Dawley rat at 1 mg/kg, iv; assay type: ADME, organism-based; parameters: dose 1 mg/kg, route intravenous; conditions: in vivo, read-out: Vz
[7] = Systemic clearance in Sprague-Dawley rat at 1 mg/kg, iv; assay type: ADME, organism-based; parameters: dose 1 mg/kg, route intravenous; conditions: in vivo
[8] = tested on: Rattus norvegicus; experiment: Toxicity in Sprague-Dawley rat assessed as toxic reactions at 1 mg/kg, iv; assay type: organism-based; parameters: dose 1 mg/kg, route intravenous; conditions: in vivo
[9] = tested on: Rattus norvegicus; experiment: Toxicity in Sprague-Dawley rat assessed as toxic reactions at 1 mg/kg, ig; assay type: organism-based; parameters: dose 1 mg/kg, route intragastric; conditions: in vivo, po
[10] = tested on: Rattus norvegicus; experiment: Toxicity in Sprague-Dawley rat assessed as side effects at 2 mg/kg, iv; assay type: organism-based; parameters: dose 2 mg/kg, route intravenous; conditions: in vivo
[11] = Inhibition of chymotrypsin-like activity of human 20S proteosome assessed as hydrolysis of fluorogenic Suc-Leu-Leu-Val-Tyr-AMC substrate
[12] = Cytotoxicity against human BCG823 cells after 72 hrs by MTT assay; assay type: functional, cell-based; conditions: BCG823, 72 h
[13] = tested on: NCI-H460; experiment: Cytotoxicity against human H460 cells after 72 hrs by MTT assay; assay type: functional, cell-based; conditions: NCI-H460, 72 h
[14] = tested on: BXPC-3; experiment: Cytotoxicity against human BxPC3 cells after 72 hrs by MTT assay; assay type: functional, cell-based; conditions: BXPC-3, 72 h
[15] = tested on: SW480; experiment: Cytotoxicity against human SW480 cells after 72 hrs by MTT assay; assay type: functional, cell-based; conditions: SW480, 72 h
[16] = tested on: A549; experiment: Cytotoxicity against human A549 cells after 72 hrs by MTT assay; assay type: functional, cell-based; conditions: A549, 72 h
[17] = tested on: PC-3; experiment: Cytotoxicity against human PC3 cells after 72 hrs by MTT assay; assay type: functional, cell-based; conditions: PC-3, 72 h
[18] = tested on: SK-OV-3; experiment: Cytotoxicity against human SKOV3 cells after 72 hrs by MTT assay; assay type: functional, cell-based; conditions: SK-OV-3, 72 h
[19] = tested on: HL-60; experiment: Cytotoxicity against human HL60 cells after 72 hrs by MTT assay; assay type: functional, cell-based; conditions: HL-60, 72 h
[20] = tested on: U-266; experiment: Cytotoxicity against human U266 cells after 72 hrs by MTT assay; assay type: functional, cell-based; conditions: U-266, 72 h
[21] = tested on: HepG2; experiment: cells; conditions: Homo sapiens, HepG2, 72 h
Description: Cytotoxicity against human HepG2 cells after 72 hrs by MTT assay

[22] = Toxicity against zebrafish embryo assessed as embryo death at 10 umol after 24 hrs; parameters: species or system Danio rerio; conditions: in vivo
[23] = Toxicity against zebrafish embryo assessed as cell death in tail at 1 umol after 24 hrs; parameters: species or system Danio rerio
[24] = Toxicity against zebrafish embryo assessed as cell death in embryo at 1 umol after 24 hrs; parameters: species or system Danio rerio
[25] = Tmax in Sprague-Dawley rat at 1 mg/kg, ig; assay type: ADME, organism-based; parameters: dose 1 mg/kg, route intragastric; conditions: in vivo, po
[26] = Cmax in Sprague-Dawley rat at 1 mg/kg, ig; assay type: ADME, organism-based; parameters: dose 1 mg/kg, route intragastric; conditions: in vivo, po
[27] = Mean residence time in Sprague-Dawley rat at 1 mg/kg, ig; assay type: ADME, organism-based; parameters: dose 1 mg/kg, route intragastric; conditions: in vivo, po
[28] = AUC (0 to t) in Sprague-Dawley rat at 1 mg/kg, ig; assay type: ADME, organism-based; parameters: dose 1 mg/kg, route intragastric; conditions: plasma, po
[29] = Terminal half life in Sprague-Dawley rat at 1 mg/kg, ig; assay type: ADME, organism-based; parameters: dose 1 mg/kg, route intragastric; conditions: in vivo, po, read-out: beta t1/2 (converted)
[30] = tested on: Rattus norvegicus; experiment: Volume of distribution in Sprague-Dawley rat at 1 mg/kg, ig; assay type: ADME, organism-based; parameters: dose 1 mg/kg, route intragastric; conditions: in vivo, po
[31] = Systemic clearance in Sprague-Dawley rat at 1 mg/kg, ig; assay type: ADME, organism-based; parameters: dose 1 mg/kg, route intragastric; conditions: in vivo, po
[32] = Oral bioavailability in Sprague-Dawley rat; assay type: ADME, organism-based; conditions: in vivo
[33] = tested on: Rattus norvegicus; experiment: Toxicity in Sprague-Dawley rat assessed as mortality at 1 mg/kg, iv after 10 hrs; assay type: organism-based; parameters: dose 1 mg/kg, route intravenous; conditions: in vivo
[34] = tested on: Rattus norvegicus; experiment: Toxicity in Sprague-Dawley rat assessed as mortality at 1 mg/kg, ig after 10 hrs; assay type: organism-based; parameters: dose 1 mg/kg, route intragastric; conditions: in vivo, po
[35] = Toxicity against zebrafish embryo assessed as morphological changes at 10 umol after 24 hrs; parameters: species or system Danio rerio; conditions: in vivo
[36] = Toxicity against zebrafish embryo assessed as morphological changes at 1 umol after 24 hrs; parameters: species or system Danio rerio; conditions: in vivo

COc1ccc([C@@H](CC(=O)N[C@@H](CC(C)C)B(O)O)NC(=O)c2ccccc2)cc1
Tmax [1]: 1.8 min
Cmax [2]: 2930 ng/mL
MRT [3]: 2.8 h
AUC(0-t) [4]: 933 ng·h/mL
half-life [5]: 5.3 h
Vd [6]: 8.45 L/kg
clearance [7]: 18.8 mL/min/kg
Activity [8]: Non-toxic
Activity [9]: Non-toxic
Activity [10]: Non-toxic
IC50 [11]: 9.6 nM
IC50 [12]: 74400 nM
IC50 [13]: 14600 nM
IC50 [14]: 380 nM
IC50 [15]: 410 nM
IC50 [16]: 830 nM
IC50 [17]: 230 nM
IC50 [18]: 3490 nM
IC50 [19]: 140 nM
IC50 [20]: 350 nM
IC50 [21]: 1880 nM

COc1ccc(C(CC(=O)N[C@@H](CC(C)C)B(O)O)NC(=O)c2cnccn2)cc1 (stereo not given in full)
IC50 [11]: 134 nM

COc1ccc(C(CC(=O)N[C@@H](CC(C)C)B(O)O)NC(=O)c2ccccc2)cc1 (stereo not given in full)
IC50 [11]: 12.5 nM
IC50 [12]: 30900 nM
IC50 [13]: 36000 nM
IC50 [14]: 1500 nM
IC50 [15]: 1080 nM
IC50 [16]: 3450 nM
IC50 [17]: 830 nM
IC50 [18]: 8430 nM
IC50 [19]: 1020 nM
IC50 [20]: 2650 nM
IC50 [21]: 5590 nM

CC(C)C[C@H](NC(=O)CC(NC(=O)c1ccccc1)c1ccc(Cl)cc1)B(O)O (stereo not given in full)
IC50 [11]: 30 nM

COc1ccc(C(CC(=O)N[C@@H](CC(C)C)B(O)O)NC(=O)c2cccc3c2CCCC3)cc1 (stereo not given in full)
IC50 [11]: 161 nM

CC(C)C[C@H](NC(=O)CC(NC(=O)c1ccccc1)c1ccccc1)B(O)O (stereo not given in full)
IC50 [11]: 40 nM

Cc1ccc(C(CC(=O)N[C@@H](CC(C)C)B(O)O)NC(=O)c2cnccn2)cc1 (stereo not given in full)
IC50 [11]: 69.8 nM

CC(C)C[C@H](NC(=O)CC(NC(=O)c1cccnc1)c1ccc(Cl)cc1)B(O)O (stereo not given in full)
IC50 [11]: 180 nM

CC(C)C[C@H](NC(=O)[C@H](Cc1ccccc1)NC(=O)c1cnccn1)B(O)O [BORTEZOMIB]
Activity [22]: Toxic
Activity [23]: 28.5%
Activity [24]: 52.4%
Tmax [1]: 1.8 min
Cmax [2]: 1080 ng/mL
MRT [3]: 1.4 h
AUC(0-t) [4]: 654 ng·h/mL
half-life [5]: 2 h
Vd [6]: 3.74 L/kg
clearance [7]: 23.9 mL/min/kg
Tmax [25]: 0.23 h
Cmax [26]: 161 ng/mL
MRT [27]: 7.69 h
AUC(0-t) [28]: 303 ng·h/mL
half-life [29]: 7.47 h
Vz [30]: 29.791 L/kg
CL/F [31]: 44.7 mL/min/kg
bioavailability [32]: 46%
Activity [33]: Toxic
Activity [34]: Toxic
IC50 [11]: 2.48 nM
IC50 [12]: 3290 nM
IC50 [13]: 780 nM
IC50 [14]: 16.2 nM
IC50 [15]: 6.1 nM
IC50 [16]: 6.7 nM
IC50 [17]: 7 nM
IC50 [18]: 151 nM
IC50 [19]: 7.1 nM
IC50 [20]: 8.8 nM
IC50 [21]: 7.5 nM

COc1ccc([C@H](CC(=O)N[C@@H](CC(C)C)B(O)O)NC(=O)c2ccccc2)cc1
Activity [35]: Non-toxic
Activity [36]: Non-toxic
IC50 [11]: 350 nM
IC50 [12]: 76900 nM
IC50 [13]: 25200 nM
IC50 [14]: 2820 nM
IC50 [15]: 1720 nM
IC50 [16]: 3680 nM
IC50 [17]: 1110 nM
IC50 [18]: 14500 nM
IC50 [19]: 700 nM
IC50 [20]: 1280 nM
IC50 [21]: 5130 nM

Cc1ccc(C[C@H](NC(=O)CC(NC(=O)c2cnccn2)c2ccccc2)B(O)O)cc1 (stereo not given in full)
IC50 [11]: 497 nM

O=C(CC(NC(=O)c1cnccn1)c1ccccc1)N[C@@H](Cc1ccccc1)B(O)O (stereo not given in full)
IC50 [11]: 664 nM

COc1ccc(C(CC(=O)N[C@@H](CC(C)C)B(O)O)NC(=O)c2cccnc2)cc1 (stereo not given in full)
IC50 [11]: 35 nM

CC(C)C[C@H](NC(=O)CC(NC(=O)c1cnccn1)c1ccccc1)B(O)O (stereo not given in full)
IC50 [11]: 136 nM

CC(C)C[C@H](NC(=O)CC(NC(=O)c1cccnc1)c1ccccc1)B(O)O (stereo not given in full)
IC50 [11]: 382 nM

Cc1ccc(C(CC(=O)N[C@@H](CC(C)C)B(O)O)NC(=O)c2cccnc2)cc1 (stereo not given in full)
IC50 [11]: 165 nM

CC(C)C[C@H](NC(=O)CC(NC(=O)c1cnccn1)c1ccc(Cl)cc1)B(O)O (stereo not given in full)
IC50 [11]: 121 nM

Cc1ccc(C(CC(=O)N[C@@H](CC(C)C)B(O)O)NC(=O)c2ccccc2)cc1 (stereo not given in full)
IC50 [11]: 14 nM
